Source: PubChem BioAssay AID2060483 (Molecular Pharmacology Branch, DTP, NCI, 2025)

Test system: K24384-001-R-PDC complex spheroids, viability
Experiment: Anticancer human tumor K24384-001-R-PDC patient-derived pancreatic adenocarcinoma cell line growth inhibition [GQUAD]
Details: for IC50: curve of first compound; for viability, T/C: stronger effect = lower value
How it was run: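 Viability of tumor cells grown as complex spheroids with endothelial and stromal cells, exposed to drug combinations. Top concentration at or near clinical Cmax (else 10 microM), diluted in half-log increments.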

[1] = second compound 0.0316 µM, first compound 0.0316 µM
[2] = second compound 0.0316 µM, first compound 0.1 µM
[3] = second compound 0.0316 µM, first compound 0.316 µM
[4] = second compound 0.0316 µM, first compound 1 µM
[5] = second compound 0.0316 µM, first compound 3.16 µM
[6] = second compound 0.0316 µM, first compound 10 µM
[7] = second compound 0.1 µM, first compound 0.0316 µM
[8] = second compound 0.1 µM, first compound 0.1 µM
[9] = second compound 0.1 µM, first compound 0.316 µM
[10] = second compound 0.1 µM, first compound 1 µM
[11] = second compound 0.1 µM, first compound 3.16 µM
[12] = second compound 0.1 µM, first compound 10 µM
[13] = second compound 0.316 µM, first compound 0.0316 µM
[14] = second compound 0.316 µM, first compound 0.1 µM
[15] = second compound 0.316 µM, first compound 0.316 µM
[16] = second compound 0.316 µM, first compound 1 µM
[17] = second compound 0.316 µM, first compound 3.16 µM
[18] = second compound 0.316 µM, first compound 10 µM
[19] = second compound 1 µM, first compound 0.0316 µM
[20] = second compound 1 µM, first compound 0.1 µM
[21] = second compound 1 µM, first compound 0.316 µM
[22] = second compound 1 µM, first compound 1 µM
[23] = second compound 1 µM, first compound 3.16 µM
[24] = second compound 1 µM, first compound 10 µM
[25] = second compound 3.16 µM, first compound 0.0316 µM
[26] = second compound 3.16 µM, first compound 0.1 µM
[27] = second compound 3.16 µM, first compound 0.316 µM
[28] = second compound 3.16 µM, first compound 1 µM
[29] = second compound 3.16 µM, first compound 3.16 µM
[30] = second compound 3.16 µM, first compound 10 µM
[31] = second compound 10 µM, first compound 0.0316 µM
[32] = second compound 10 µM, first compound 0.1 µM
[33] = second compound 10 µM, first compound 0.316 µM
[34] = second compound 10 µM, first compound 1 µM
[35] = second compound 10 µM, first compound 3.16 µM
[36] = second compound 10 µM, first compound 10 µM
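Further: spheroids exposed to compounds for seven days.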

Work on `C#Cc1c(F)ccc2cc(O)cc(-c3ncc4c(N5CC6CCC(C5)N6)nc(OCC56CCCN5CC(F)C6)nc4c3F)c12` (stereo unspecified) + Cc1[nH]c2ccc(F)cc2c1-c1nc2c3cccnc3c3ncccc3c2[nH]1 yielded an IC50 (second compound 0.0316 µM) of 1360 nM, an IC50 (second compound 0.1 µM) of 1490 nM and an IC50 (second compound 0.316 µM) of 1540 nM. It also gave an IC50 (second compound 1 µM) of 1820 nM, an IC50 (second compound 3.16 µM) of 969 nM and an IC50 (second compound 10 µM) of 1080 nM. It also gave a viability, T/C [1] of 99.9%, a viability, T/C [2] of 99.6% and a viability, T/C [3] of 129%. It also gave a viability, T/C [4] of 58.5%, a viability, T/C [5] of 34.4% and a viability, T/C [6] of 18.2%. The viability, T/C [7] was 93.9%, the viability, T/C [8] was 112% and the viability, T/C [9] was 85.1%. For the same compound, the viability, T/C [10] was 58%, the viability, T/C [11] was 34.3% and the viability, T/C [12] was 14.5%. The viability, T/C [13] was 97.1%, the viability, T/C [14] was 101% and the viability, T/C [15] was 74.4%. It also gave a viability, T/C [16] of 57.4%, a viability, T/C [17] of 39.2% and a viability, T/C [18] of 19.1%. For the same compound, the viability, T/C [19] was 91%, the viability, T/C [20] was 101% and the viability, T/C [21] was 83%. It also gave a viability, T/C [22] of 64.1%, a viability, T/C [23] of 37.5% and a viability, T/C [24] of 16.9%. The viability, T/C [25] was 75.6%, the viability, T/C [26] was 87.6% and the viability, T/C [27] was 64.7%. It also gave a viability, T/C [28] of 47.1%, a viability, T/C [29] of 31.3% and a viability, T/C [30] of 11.7%. It also gave a viability, T/C [31] of 80.5%, a viability, T/C [32] of 68.6% and a viability, T/C [33] of 69%. It also gave a viability, T/C [34] of 52.4%, a viability, T/C [35] of 27.5% and a viability, T/C [36] of 10.8%.
In the case of `CC(=O)O[C@H]1C(=O)[C@@]2(C)[C@H]([C@H](OC(=O)c3ccccc3)[C@]3(O)C[C@H](OC(=O)[C@H](O)[C@@H](NC(=O)c4ccccc4)c4ccccc4)C(C)=C1C3(C)C)[C@]1(OC(C)=O)CO[C@@H]1C[C@@H]2O` + Cc1[nH]c2ccc(F)cc2c1-c1nc2c3cccnc3c3ncccc3c2[nH]1, the IC50 (second compound 0.0316 µM) is reported as < 31.6 nM, the IC50 (second compound 0.1 µM) is reported as < 31.6 nM and the IC50 (second compound 0.316 µM) is reported as < 31.6 nM. The IC50 (second compound 1 µM) was < 31.6 nM, the IC50 (second compound 3.16 µM) was < 31.6 nM and the IC50 (second compound 10 µM) was < 31.6 nM. For the same compound, the viability, T/C [1] was 31.8%, the viability, T/C [2] was 25% and the viability, T/C [3] was 21.2%. It also gave a viability, T/C [4] of 16.8%, a viability, T/C [5] of 24.9% and a viability, T/C [6] of 28.7%. It also gave a viability, T/C [7] of 42.4%, a viability, T/C [8] of 23.7% and a viability, T/C [9] of 19.6%. The viability, T/C [10] was 18.7%, the viability, T/C [11] was 22.7% and the viability, T/C [12] was 27.1%. The viability, T/C [13] was 40%, the viability, T/C [14] was 28.3% and the viability, T/C [15] was 18.6%. It also gave a viability, T/C [16] of 22.3%, a viability, T/C [17] of 24.5% and a viability, T/C [18] of 29.1%. It also gave a viability, T/C [19] of 38.1%, a viability, T/C [20] of 28.2% and a viability, T/C [21] of 18.5%. It also gave a viability, T/C [22] of 26.1%, a viability, T/C [23] of 31.6% and a viability, T/C [24] of 31.4%. It also gave a viability, T/C [25] of 34.6%, a viability, T/C [26] of 18.9% and a viability, T/C [27] of 18.5%. The viability, T/C [28] was 16.7%, the viability, T/C [29] was 22.9% and the viability, T/C [30] was 18.1%. The viability, T/C [31] was 27.6%, the viability, T/C [32] was 23.2% and the viability, T/C [33] was 24.1%. It also gave a viability, T/C [34] of 15.4%, a viability, T/C [35] of 22.2% and a viability, T/C [36] of 23.1%.
For `CCCS(=O)(=O)Nc1ccc(F)c(C(=O)c2c[nH]c3ncc(-c4ccc(Cl)cc4)cc23)c1F` + Cc1[nH]c2ccc(F)cc2c1-c1nc2c3cccnc3c3ncccc3c2[nH]1, the IC50 (second compound 0.0316 µM) was 9150 nM, the IC50 (second compound 0.1 µM) was 8660 nM and the IC50 (second compound 0.316 µM) was 8260 nM. The IC50 (second compound 1 µM) was 7750 nM, the IC50 (second compound 3.16 µM) was 5030 nM and the IC50 (second compound 10 µM) was 5990 nM. It also gave a viability, T/C [1] of 86.4%, a viability, T/C [2] of 137% and a viability, T/C [3] of 107%. It also gave a viability, T/C [4] of 117%, a viability, T/C [5] of 130% and a viability, T/C [6] of 44.5%. For the same compound, the viability, T/C [7] was 87.7%, the viability, T/C [8] was 105% and the viability, T/C [9] was 117%. It also gave a viability, T/C [10] of 128%, a viability, T/C [11] of 122% and a viability, T/C [12] of 41%. The viability, T/C [13] was 92.1%, the viability, T/C [14] was 102% and the viability, T/C [15] was 140%. For the same compound, the viability, T/C [16] was 137%, the viability, T/C [17] was 125% and the viability, T/C [18] was 36.3%. For the same compound, the viability, T/C [19] was 112%, the viability, T/C [20] was 109% and the viability, T/C [21] was 108%. For the same compound, the viability, T/C [22] was 126%, the viability, T/C [23] was 128% and the viability, T/C [24] was 31%. The viability, T/C [25] was 77%, the viability, T/C [26] was 111% and the viability, T/C [27] was 76.7%. The viability, T/C [28] was 92.2%, the viability, T/C [29] was 75.9% and the viability, T/C [30] was 11.3%. The viability, T/C [31] was 84.6%, the viability, T/C [32] was 80.8% and the viability, T/C [33] was 85.2%. It also gave a viability, T/C [34] of 117%, a viability, T/C [35] of 109% and a viability, T/C [36] of 13.8%.
